According to patent US6028053A, “Peptide inhibitors of a phosphotyrosine-binding domain containing protein” (Mount Sinai Hospital Corporation, priority 1998, dated 2000):
Square brackets hold non-standard residues; d marks the D form. Peptide text beside a SMILES is read from it. pY = N[C@@H](Cc1ccc(OP(=O)(O)O)cc1)C(=O)O

Biological target: T1, Shc PTB domain (GST-ShcB) binding to activated EGF-R (Homo sapiens, UniProt P29353)
T1 construct: made in house
T1 sequence (P29353 156-339 limits assumed): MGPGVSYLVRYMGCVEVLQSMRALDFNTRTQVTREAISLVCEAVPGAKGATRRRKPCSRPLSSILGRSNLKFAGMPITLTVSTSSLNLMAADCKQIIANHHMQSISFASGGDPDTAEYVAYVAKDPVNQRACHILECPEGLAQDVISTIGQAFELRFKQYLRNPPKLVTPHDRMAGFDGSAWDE
Assay: In vitro binding assay: competitive inhibition of EGF receptor binding to GST-ShcB in HER14 lysates
Conditions: 100 μM; FIG. 10 Panel A; read-out: inhibition of association of Shc and EGF-R
Method: HER14 cells (3T3 cells expressing EGF-R) were starved in 0.5% CS media for 24 hours and stimulated with 100 ng/ml EGF for 5 min. Cells were lysed and mixed with GST, GST-ShcB or GST-R175M beads. Proteins which bound to beads were resolved on SDS-PAGE and detected by anti-phospho-Tyr antibody (4G10) or by anti-EGF-R.
The peptides listed in Table 2 were added to cell lysates at 5 μM, incubated for 30 min., and treated with GST-ShcB beads. Proteins bound to GST-ShcB were detected by anti-phospho-Tyr antibody. […] The experiment was repeated with the peptides dissolved in DMSO (FIG. 9).

| inhibition at 100 µM [%] | SMILES |
| --- | --- |
| ~50 | CC[C@H](C)[C@@H]1NC(=O)CNC(=O)[C@@H]2CCCN2C(=O)[C@H](CO)NC(=O)[C@H](Cc2ccccc2)NC(=O)[C@H](Cc2ccc(OP(=O)(O)O)cc2)NC(=O)[C@H](CCC(N)=O)NC(=O)[C@@H]2CCCN2C(=O)[C@H](CC(N)=O)NC(=O)[C@H](CCC(=O)O)NC1=O [C-1, Cyclo-(IENPQpYFSPG)] (cyclo(ENPQ[pY]FSPGI)) |

Same assay, conditions: dose response, cyclic peptides, 5 μM; FIG. 10 Panel A

| SMILES | inhibition of association of Shc and EGF-R |
| --- | --- |
| NC(=O)CC[C@@H]1NC(=O)[C@@H]2CCCN2C(=O)[C@H](CC(N)=O)NC(=O)[C@H](Cc2ccc(OP(=O)(O)O)cc2)NC1=O [C-3, Cyclo-(NPQpY)] (cyclo(NPQ[pY])) | did not inhibit |
| NC(=O)CC[C@@H]1NC(=O)[C@@H]2CCCN2C(=O)[C@H](CC(N)=O)NC(=O)CNC(=O)[C@H](Cc2ccc(OP(=O)(O)O)cc2)NC1=O [C-4, Cyclo-(NPQpYG)] (cyclo(GNPQ[pY])) | did not inhibit |
| NC(=O)CC[C@@H]1NC(=O)[C@@H]2CCCN2C(=O)[C@H](CC(N)=O)NC(=O)CNC(=O)CNC(=O)[C@H](Cc2ccc(OP(=O)(O)O)cc2)NC1=O [C-5, Cyclo-(NPQpYGG)] (cyclo(GGNPQ[pY])) | did not inhibit |

Biological target: T2, Shc PTB domain (Homo sapiens, UniProt P29353)
T2 construct: containing 1 μM GST-Shc PTB domain fusion protein; made in house
T2 sequence (P29353 156-339 limits assumed): T1 sequence (P29353 156-339 limits assumed)
Assay: Surface plasmon resonance competition of GST-Shc PTB domain binding to immobilized polyoma middle T antigen phosphopeptide
Conditions: not given
Method: Surface plasmon resonance analysis was carried out using a Biacore apparatus (Pharmacia Biosensor) as described previously (Puil et al., 1994). The peptide L-S-L-L-S-N-P-T-p.Y-S-V-M-R-S-K (SEQ ID NO:23) was immobilized to a biosensor chip through injection of a 0.5 mM solution of the phosphopeptide, in 50 mM HEPES, pH 7.5 and 2 M NaCl, across the chip surface previously activated following procedures outlined by the manufacturer. Injection of anti-phosphotyrosine antibody was used to confirm that successful immobilization of the peptide was achieved. Solutions (100 μl) containing 1 μM GST-Shc PTB domain fusion protein and the indicated concentrations of soluble phosphopeptide in 50 mM Na phosphate, pH 7.5, 150 mM NaCl, 0.1 mM EDTA, and 2 mM DTT, were injected across the surface. The amount of bound GST-Shc PTB domain was estimated from the surface plasmon resonance signal at a fixed time following the end of the injection and the percentage bound, relative to injection of GST-Shc PTB domain alone, calculated. The surface was regenerated using 2 M Guanidinium-HCl.

| SMILES | IC50 [nM] |
| --- | --- |
| C[C@H](NC(=O)[C@H](C)NC(=O)[C@@H](N)Cc1c[nH]cn1)C(=O)N[C@@H](CCC(=O)O)C(=O)N[C@@H](CC(N)=O)C(=O)N1CCC[C@H]1C(=O)N[C@@H](CCC(N)=O)C(=O)N[C@@H](Cc1ccc(OP(=O)(O)O)cc1)C(=O)N[C@@H](Cc1ccccc1)C(=O)N[C@@H](CO)C(=O)N[C@@H](CC(=O)O)C(=O)O [H-A-A-E-N-P-Q-P.Y-F-S-D, H-A-A-E-N-P-Q-p.Y-F-S-D] (H-HAAENPQ[pY]FSD-OH) | 475 |
| CC[C@H](C)[C@H](NC(=O)[C@H](C)NC(=O)[C@@H](N)Cc1c[nH]cn1)C(=O)N[C@@H](CCC(=O)O)C(=O)N[C@@H](CC(N)=O)C(=O)N1CCC[C@H]1C(=O)N[C@@H](CCC(N)=O)C(=O)N[C@@H](Cc1ccc(OP(=O)(O)O)cc1)C(=O)N[C@@H](Cc1ccccc1)C(=O)N[C@@H](CO)C(=O)N[C@@H](CC(=O)O)C(=O)O [H-A-I-E-N-P-Q-P.Y-F-S-D, His-Ala-Ile-Glu-Asn-Pro-Gln-P.Tyr-Phe-Ser-Asp] (H-HAIENPQ[pY]FSD-OH) | 20 |
| CC[C@H](C)[C@H](NC(=O)[C@@H](N)Cc1c[nH]cn1)C(=O)N[C@@H](C)C(=O)N[C@@H](CCC(=O)O)C(=O)N[C@@H](CC(N)=O)C(=O)N1CCC[C@H]1C(=O)N[C@@H](CCC(N)=O)C(=O)N[C@@H](Cc1ccc(OP(=O)(O)O)cc1)C(=O)N[C@@H](Cc1ccccc1)C(=O)N[C@@H](CO)C(=O)N[C@@H](CC(=O)O)C(=O)O [H-I-A-E-N-P-Q-P.Y-F-S-D, His-Ile-Ala-Glu-Asn-Pro-Gln-P.Tyr-Phe-Ser-Asp] (H-HIAENPQ[pY]FSD-OH) | 250 |
| CC[C@H](C)[C@H](NC(=O)[C@@H](NC(=O)[C@@H](N)Cc1c[nH]cn1)[C@@H](C)CC)C(=O)N[C@@H](CCC(=O)O)C(=O)N[C@@H](CC(N)=O)C(=O)N1CCC[C@H]1C(=O)N[C@@H](CCC(N)=O)C(=O)N[C@@H](Cc1ccc(OP(=O)(O)O)cc1)C(=O)N[C@@H](Cc1ccccc1)C(=O)N[C@@H](CO)C(=O)N[C@@H](CC(=O)O)C(=O)O [H-I-I-E-N-P-Q-P.Y-F-S-D, His-Ile-Ile-Glu-Asn-Pro-Gln-P.Tyr-Phe-Ser-Asp] (H-HIIENPQ[pY]FSD-OH) | 175 |
| CC[C@H](C)[C@H](N)C(=O)N[C@@H](CCC(=O)O)C(=O)N[C@@H](CC(N)=O)C(=O)N1CCC[C@H]1C(=O)N[C@@H](CCC(N)=O)C(=O)N[C@@H](Cc1ccc(OP(=O)(O)O)cc1)C(=O)N[C@@H](Cc1ccccc1)C(=O)N[C@@H](CO)C(=O)N[C@@H](CC(=O)O)C(=O)O [IENPQpYFSD] (H-IENPQ[pY]FSD-OH) | 4000 |

Same assay, conditions: peptide concentration inhibiting by 50% binding of 1 μM GST-Shc PTB domain to immobilized polyoma middle T antigen phosphopeptide; read-out: IC 50

| IC50 [nM] | SMILES |
| --- | --- |
| 15000 | C[C@H](NC(=O)[C@@H](N)Cc1c[nH]cn1)C(=O)N[C@@H](CO)C(=O)N[C@@H](CCC(=O)O)C(=O)N[C@@H](CC(N)=O)C(=O)N1CCC[C@H]1C(=O)N[C@@H](CCC(N)=O)C(=O)N[C@@H](Cc1ccc(OP(=O)(O)O)cc1)C(=O)N[C@@H](Cc1ccccc1)C(=O)N[C@@H](CO)C(=O)N[C@@H](CC(=O)O)C(=O)O [H-A-S-E-N-P-Q-P.Y-F-S-D, H-A-S-E-N-P-Q-p.Y-F-S-D] (H-HASENPQ[pY]FSD-OH) |
| 80000 | CC[C@H](C)[C@H](NC(=O)[C@@H](NC(=O)[C@@H](N)Cc1c[nH]cn1)[C@@H](C)CC)C(=O)N[C@@H](CCC(=O)O)C(=O)N[C@@H](C)C(=O)N1CCC[C@H]1C(=O)N[C@@H](CCC(N)=O)C(=O)N[C@@H](Cc1ccc(OP(=O)(O)O)cc1)C(=O)N[C@@H](Cc1ccccc1)C(=O)N[C@@H](CO)C(=O)N[C@@H](CC(=O)O)C(=O)O [H-I-I-E-A-P-Q-P.Y-F-S-D, His-Ile-Ile-Glu-Ala-Pro-Gln-P.Tyr-Phe-Ser-Asp] (H-HIIEAPQ[pY]FSD-OH) |
| 2500 | CC[C@H](C)[C@H](NC(=O)[C@@H](NC(=O)[C@@H](N)Cc1c[nH]cn1)[C@@H](C)CC)C(=O)N[C@@H](CCC(=O)O)C(=O)N[C@@H](CC(N)=O)C(=O)N[C@@H](C)C(=O)N[C@@H](CCC(N)=O)C(=O)N[C@@H](Cc1ccc(OP(=O)(O)O)cc1)C(=O)N[C@@H](Cc1ccccc1)C(=O)N[C@@H](CO)C(=O)N[C@@H](CC(=O)O)C(=O)O [H-I-I-E-N-A-Q-P.Y-F-S-D, His-Ile-Ile-Glu-Asn-Ala-Gln-P.Tyr-Phe-Ser-Asp] (H-HIIENAQ[pY]FSD-OH) |
| 90 | CC[C@H](C)[C@H](NC(=O)[C@H](C)NC(=O)[C@@H](N)Cc1ccc(O)cc1)C(=O)N[C@@H](CO)C(=O)N[C@@H](CC(N)=O)C(=O)N1CCC[C@H]1C(=O)N[C@@H](CCC(=O)O)C(=O)N[C@@H](Cc1ccc(OP(=O)(O)O)cc1)C(=O)N[C@@H](CC(C)C)C(=O)N[C@@H](CO)C(=O)N[C@@H](C)C(=O)O [Y-A-I-S-N-P-E-P.Y-L-S-A, Tyr-Ala-Ile-Ser-Asn-Pro-Glu-P.Tyr-Leu-Ser-Ala] (H-YAISNPE[pY]LSA-OH) |
| 7000 | CC(C)C[C@H](NC(=O)[C@H](Cc1ccc(OP(=O)(O)O)cc1)NC(=O)[C@H](CCC(=O)O)NC(=O)[C@@H]1CCCN1C(=O)[C@H](CC(N)=O)NC(=O)[C@H](CO)NC(=O)[C@H](CO)NC(=O)[C@H](C)NC(=O)[C@@H](N)Cc1ccc(O)cc1)C(=O)N[C@@H](CO)C(=O)N[C@@H](C)C(=O)O [Y-A-S-S-N-P-E-P.Y-L-S-A, Y-A-S-S-N-P-E-p.Y-L-S-A] (H-YASSNPE[pY]LSA-OH) |
